Three compounds from patent US20120270915A1, “FATTY ACID AMIDE HYDROLASE INHIHIBITORS FOR TREATING PAIN” (priority 2011, published 2012) can be followed below.

The structures appear in SMILES notation.

The target of the assay is T1, FAAH Rat brain (Rattus norvegicus, UniProt P97612).
T1 construct: from tissue; host or cells: rat brain membranes
T1 sequence (P97612 1-579): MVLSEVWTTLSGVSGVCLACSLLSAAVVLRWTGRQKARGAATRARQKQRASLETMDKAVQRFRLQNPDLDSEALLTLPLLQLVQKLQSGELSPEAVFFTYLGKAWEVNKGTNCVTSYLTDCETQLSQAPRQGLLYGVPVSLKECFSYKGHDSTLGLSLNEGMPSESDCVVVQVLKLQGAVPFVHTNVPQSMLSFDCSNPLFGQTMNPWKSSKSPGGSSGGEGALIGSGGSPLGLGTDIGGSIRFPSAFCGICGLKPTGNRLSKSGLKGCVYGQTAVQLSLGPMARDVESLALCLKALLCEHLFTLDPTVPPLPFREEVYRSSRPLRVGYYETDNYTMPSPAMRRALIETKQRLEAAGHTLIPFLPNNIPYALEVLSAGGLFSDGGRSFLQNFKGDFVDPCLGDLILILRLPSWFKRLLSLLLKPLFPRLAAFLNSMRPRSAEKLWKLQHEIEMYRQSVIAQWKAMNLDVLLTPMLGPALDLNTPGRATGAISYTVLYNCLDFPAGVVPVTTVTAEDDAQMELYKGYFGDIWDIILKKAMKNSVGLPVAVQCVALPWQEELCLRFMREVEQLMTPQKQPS
Description: FAAH inhibitory activity, rat brain membranes, [14C]-AEA hydrolysis. Type of assay: biochemical. The note with it: Table 3; quantity, enzyme source and unit inferred; read-out: FAAH. The protocol:
The compounds of Examples 12, and 19 are tested for FAAH inhibitory activity as follows:
Method 1: Membranes obtained from rat brain are incubated with 2 mM [^14C]-AEA, 30 min at 37° C. at pH values ranging from 9.00 to 10.00 in presence and absence of tested compounds in a final volume of […]. Incubation is stopped by extraction with CHCl3/MeOH (1:1) and the aqueous phases containing [^14C]-Ethanolamine produced by [^14C]-AEA hydrolysis are measured.
As for `COc1ccc(CCC(=O)O)c(C(=O)N2CCC[C@H]2c2nc(C(=O)NCCCCC3CCCCC3)co2)c1` [Example 19], the IC50 was 180 nM.

As for `CCS(=O)(=O)NC(=O)CCc1ccc(OC)cc1C(=O)N1CCC[C@H]1c1nc(C(=O)NCCCCC2CCCCC2)co1` [Example 19a, 2-{(S)-1-[2-(3-Ethanesulfonylamino-3-oxo-propyl)-5-methoxy-benzoyl]-pyrrolidin-2-yl}-oxazole-4-carboxylic acid (4-cyclohexyl-butyl)-amide], the IC50 was determined as 20 nM.

For the compound `COc1ccc(CCC(=O)NS(C)(=O)=O)c(C(=O)N2CCC[C@H]2c2nc(C(=O)NCCCCC3CCCCC3)co2)c1` [Example 19b, 2-{(S)-1-[2-(3-Methanesulfonylamino-3-oxo-propyl)-5-methoxy-benzoyl]-pyrrolidin-2-yl}-oxazole-4-carboxylic acid (4-cyclohexyl-butyl)-amide], the IC50 is 30 nM.
